pIC50: −log10 of the molar value.
How the values were obtained:
BTK(h) = BTK(h) (Homo sapiens (Human), UniProt Q06187); test: BTK(h) kinase activity study; type: biochemical; conditions: no pre-incubation of compound with enzyme/substrate mix prior to ATP addition
Protocol: Compounds of Formula Ib, Formula II, and Formula III were tested against BTK(h) as described herein. All compounds tested were prepared to a working stock of 50× final assay concentration in 100% DMSO. Where appropriate, more concentrated stocks were diluted manually to 50× using 100% DMSO. Compounds, which were powders, were reconstituted to a 10 mM stock in 100% DMSO before further dilution to 50×.
The required volume of the 50× stock of test compound was added to the assay well before a reaction mix containing the enzyme and substrate was added. The reaction was initiated by the addition of ATP at the selected concentration. There was no pre-incubation of the compound with the enzyme/substrate mix prior to ATP addition.
Results are expressed as kinase activity remaining, as a percentage of the DMSO control. This is calculated using the following formula: […]
For IC50 determinations, data are analyzed using XLFit version 5.3 (ID Business Solutions). Sigmoidal dose-response (variable slope) curves are fit based on the mean result for each test concentration using non-linear regression analysis. Where the top and/or bottom of the curve fall >10% out with 100 and 0, respectively, either or both of these limits may be constrained at 100 and 0, provided that the QC criterion on R^2 is met.

Dopamine transporter (h) = Dopamine transporter (h) (Homo sapiens (Human), UniProt Q01959); test: Dopamine transporter (h) binding assay, [3H]BTCP; conditions: Human recombinant (CHO cells); [3H]BTCP 4 nM; 120 min 4° C.
Chain of Dopamine transporter (h) (Q01959 whole entry): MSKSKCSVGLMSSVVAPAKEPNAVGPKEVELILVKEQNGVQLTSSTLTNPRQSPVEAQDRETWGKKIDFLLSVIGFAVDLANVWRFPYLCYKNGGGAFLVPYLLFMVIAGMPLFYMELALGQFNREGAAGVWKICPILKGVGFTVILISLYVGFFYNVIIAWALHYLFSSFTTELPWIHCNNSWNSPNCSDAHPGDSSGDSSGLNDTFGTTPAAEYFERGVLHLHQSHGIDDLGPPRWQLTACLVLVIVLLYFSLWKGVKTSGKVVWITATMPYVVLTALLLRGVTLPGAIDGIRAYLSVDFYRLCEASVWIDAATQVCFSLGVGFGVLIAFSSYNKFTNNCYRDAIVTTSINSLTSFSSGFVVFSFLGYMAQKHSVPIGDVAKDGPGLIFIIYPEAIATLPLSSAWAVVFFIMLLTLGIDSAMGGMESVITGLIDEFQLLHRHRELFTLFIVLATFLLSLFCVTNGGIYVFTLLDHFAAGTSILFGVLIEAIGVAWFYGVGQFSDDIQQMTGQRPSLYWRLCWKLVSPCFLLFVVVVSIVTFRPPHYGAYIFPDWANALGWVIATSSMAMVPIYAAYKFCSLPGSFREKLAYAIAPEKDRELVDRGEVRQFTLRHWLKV
Protocol: (§1) Compounds of Formula Ia, Formula Ib, Formula III, Formula IV, and Formula V were tested in various in vitro assays. Compound binding was calculated as a % inhibition of the binding of a radioactively labeled ligand specific for each target. Compound enzyme inhibition effect was calculated as a % inhibition of control enzyme activity.
The general procedure is noted below. See Pristupa, Z. B. et al. (1994), Mol. Pharmacol., 45: 125-135. Minor variations to the experimental protocol described below may have occurred during the testing, but if so, they had no impact on the quality of the results obtained.

H2 (h) = H2 (h) (Homo sapiens (Human), UniProt P25021); test: H2 (h) binding assay, [125I]APT; conditions: Human recombinant (CHO cells); [125I]APT 0.075 nM; 120 min RT
Chain of H2 (h) (P25021 whole entry): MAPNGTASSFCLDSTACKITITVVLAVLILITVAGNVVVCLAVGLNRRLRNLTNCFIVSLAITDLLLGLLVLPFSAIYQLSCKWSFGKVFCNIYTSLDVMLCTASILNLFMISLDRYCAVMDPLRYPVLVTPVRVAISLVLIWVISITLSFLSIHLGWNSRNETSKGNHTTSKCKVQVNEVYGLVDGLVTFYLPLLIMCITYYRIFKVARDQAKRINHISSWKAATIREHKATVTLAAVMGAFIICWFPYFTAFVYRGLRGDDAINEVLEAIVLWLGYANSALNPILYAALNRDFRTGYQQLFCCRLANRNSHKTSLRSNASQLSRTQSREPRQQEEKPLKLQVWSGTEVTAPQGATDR

5-HT5a (h) = 5-HT5a (h) (Homo sapiens (Human), UniProt P47898); test: 5-HT5a (h) binding assay, [3H]LSD; conditions: Human recombinant (HEK-293 cells); [3H]LSD 1.5 nM; 120 min 37° C.
Chain of 5-HT5a (h) (P47898 whole entry): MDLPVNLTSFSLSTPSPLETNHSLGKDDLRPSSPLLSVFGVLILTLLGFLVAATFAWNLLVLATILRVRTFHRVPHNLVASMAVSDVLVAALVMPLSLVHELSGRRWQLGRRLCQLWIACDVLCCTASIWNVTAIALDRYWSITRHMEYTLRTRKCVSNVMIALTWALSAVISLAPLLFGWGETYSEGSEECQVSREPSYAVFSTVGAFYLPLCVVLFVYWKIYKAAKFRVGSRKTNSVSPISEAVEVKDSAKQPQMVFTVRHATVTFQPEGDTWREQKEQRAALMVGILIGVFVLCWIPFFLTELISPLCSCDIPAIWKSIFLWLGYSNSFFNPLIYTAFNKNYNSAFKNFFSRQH
Protocol: as §1
The general procedure is noted below. See Rees, S. et al. (1994), FEBS Lett., 355: 242-246. Minor variations to the experimental protocol described below may have occurred during the testing but if so, they had no impact on the quality of the results obtained.

δ (DOP) (h) = δ (DOP) (h) (Homo sapiens (Human), UniProt P41143); test: δ (DOP) (h) binding assay, [3H]DADLE; conditions: Human recombinant (Chem-1 (RBL) cells); [3H]DADLE 0.5 nM; 60 min RT
Chain of δ (DOP) (h) (P41143 whole entry): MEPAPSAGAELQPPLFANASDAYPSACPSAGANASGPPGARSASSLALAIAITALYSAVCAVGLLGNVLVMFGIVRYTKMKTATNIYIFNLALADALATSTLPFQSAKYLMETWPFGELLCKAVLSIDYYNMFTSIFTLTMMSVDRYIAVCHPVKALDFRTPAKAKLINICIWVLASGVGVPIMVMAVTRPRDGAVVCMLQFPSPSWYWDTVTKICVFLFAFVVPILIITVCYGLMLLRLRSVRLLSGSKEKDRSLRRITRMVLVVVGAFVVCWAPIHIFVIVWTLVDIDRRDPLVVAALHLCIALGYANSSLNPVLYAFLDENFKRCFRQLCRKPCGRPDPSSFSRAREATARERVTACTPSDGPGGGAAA
Protocol: as §1
The general procedure is noted below. See Simonin, F. et al. (1994), Mol. Pharmacol., 46: 1015-1021. Minor variations to the experimental protocol described below may have occurred during the testing but if so, they had no impact on the quality of the results obtained.

kappa (h) (KOP) = kappa (h) (KOP) (Homo sapiens (Human), UniProt P41145); test: kappa (h) (KOP) binding assay, [3H]U69593; conditions: Human recombinant (RBL cells); [3H]U69593 0.5 nM; 60 min RT
Chain of kappa (h) (KOP) (P41145 whole entry): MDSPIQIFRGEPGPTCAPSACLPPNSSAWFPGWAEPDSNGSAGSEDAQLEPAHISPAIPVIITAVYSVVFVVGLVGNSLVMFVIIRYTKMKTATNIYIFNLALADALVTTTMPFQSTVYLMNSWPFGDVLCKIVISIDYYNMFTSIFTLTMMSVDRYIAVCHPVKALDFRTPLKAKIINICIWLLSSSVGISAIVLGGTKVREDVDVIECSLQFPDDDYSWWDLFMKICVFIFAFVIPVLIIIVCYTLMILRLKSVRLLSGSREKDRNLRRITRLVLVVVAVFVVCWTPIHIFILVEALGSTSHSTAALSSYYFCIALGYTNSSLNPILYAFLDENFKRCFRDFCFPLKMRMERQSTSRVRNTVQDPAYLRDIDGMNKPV
Protocol: as §1
The general procedure is noted below. See Simonin, F. et al. (1995), Proc. Natl. Acad. Sci. U.S.A., 92: 7006-7010. Minor variations to the experimental protocol described below may have occurred during the testing but if so, they had no impact on the quality of the results obtained.

[1] = target: Norepinephrine transporter (h) (Homo sapiens (Human), UniProt P23975); test: Norepinephrine transporter (h) binding assay, [3H]nisoxetine; conditions: Human recombinant (CHO cells); [3H]nisoxetine 1 nM; 120 min 4° C.
Chain of Norepinephrine transporter (h) (P23975 whole entry): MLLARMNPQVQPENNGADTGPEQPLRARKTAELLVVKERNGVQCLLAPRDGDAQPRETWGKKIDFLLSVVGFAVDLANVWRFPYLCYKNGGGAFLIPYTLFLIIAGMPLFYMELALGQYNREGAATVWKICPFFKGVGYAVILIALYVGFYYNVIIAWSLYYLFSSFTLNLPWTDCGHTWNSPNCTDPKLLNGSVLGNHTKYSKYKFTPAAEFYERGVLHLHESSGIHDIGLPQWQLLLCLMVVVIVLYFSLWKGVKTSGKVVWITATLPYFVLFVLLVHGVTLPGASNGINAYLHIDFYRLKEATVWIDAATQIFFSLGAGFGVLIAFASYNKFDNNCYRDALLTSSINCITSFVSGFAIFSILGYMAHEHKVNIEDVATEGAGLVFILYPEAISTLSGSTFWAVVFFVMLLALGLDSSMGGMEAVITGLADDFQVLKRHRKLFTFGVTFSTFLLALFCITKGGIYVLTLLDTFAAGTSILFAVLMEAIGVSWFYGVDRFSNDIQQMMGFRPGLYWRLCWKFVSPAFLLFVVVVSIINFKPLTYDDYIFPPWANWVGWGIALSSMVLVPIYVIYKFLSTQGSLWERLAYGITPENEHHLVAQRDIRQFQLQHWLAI
Protocol: as §1
The general procedure is noted below. See Pacholczyk, T. et al. (1991), Nature, 350: 350-354. Minor variations to the experimental protocol described below may have occurred during the testing but if so, they had no impact on the quality of the results obtained.

Chain of BTK(h) (Q06187 whole entry): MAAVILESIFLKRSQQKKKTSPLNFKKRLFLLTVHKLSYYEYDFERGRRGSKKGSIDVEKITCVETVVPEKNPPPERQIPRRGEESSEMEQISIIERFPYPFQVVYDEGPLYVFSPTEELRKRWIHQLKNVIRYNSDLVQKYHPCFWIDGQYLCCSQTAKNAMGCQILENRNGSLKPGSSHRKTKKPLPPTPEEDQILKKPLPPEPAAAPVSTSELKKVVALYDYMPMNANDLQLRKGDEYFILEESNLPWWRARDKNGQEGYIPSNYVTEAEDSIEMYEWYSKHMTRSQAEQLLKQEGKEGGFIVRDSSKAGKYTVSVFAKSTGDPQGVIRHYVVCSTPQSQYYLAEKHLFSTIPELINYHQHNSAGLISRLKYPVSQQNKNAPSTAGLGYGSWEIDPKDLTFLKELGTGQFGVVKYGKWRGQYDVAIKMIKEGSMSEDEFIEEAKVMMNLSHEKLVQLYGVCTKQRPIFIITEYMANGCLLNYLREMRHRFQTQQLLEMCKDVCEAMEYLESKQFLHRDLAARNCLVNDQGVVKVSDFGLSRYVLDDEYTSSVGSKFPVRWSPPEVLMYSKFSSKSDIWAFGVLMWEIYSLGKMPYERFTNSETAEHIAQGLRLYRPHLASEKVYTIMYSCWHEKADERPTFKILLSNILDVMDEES

| pIC50 (BTK(h)) | % inhibition of the binding of radioactively labeled ligand (Dopamine transporter (h)) | % inhibition of the binding of radioactively labeled ligand (H2 (h)) | % inhibition of the binding of radioactively labeled ligand (5-HT5a (h)) | % inhibition of the binding of radioactively labeled ligand (δ (DOP) (h)) | % inhibition of the binding of radioactively labeled ligand (kappa (h) (KOP)) | % inhibition of the binding of radioactively labeled ligand [1] | SMILES |
| --- | --- | --- | --- | --- | --- | --- | --- |
| 5.86 | 96.2% | 56.7% | 56.1% | 56.7% | 54.6% | 66.7% | Nc1nccc2c1n(-c1ccc(Oc3ccccc3)cc1)c(=O)n2[C@@H]1CCCNC1 [Formula III] |
| 6.55 |  |  |  |  |  |  | Nc1nccc2c1n(-c1ccc(Oc3ccccc3)cc1)c(=O)n2[C@@H]1CCCN(C(=O)C(O)CO)C1 (stereo partly drawn) [Formula II, 4-amino-3-(4-phenoxyphenyl)-1-[(3R)-1-(2,3-dihydroxypropanoyl)-3-piperidyl]imidazo[4,5-c]pyridin-2-one] |
| 7.47 |  |  |  |  |  |  | C=CC(=O)N1C[C@H](O)C[C@@H](n2c(=O)n(-c3ccc(Oc4ccccc4)cc3)c3c(N)nccc32)C1 [Formula Ib, 4-amino-1-[(3R,5R)-5-hydroxy-1-prop-2-enoyl-3-piperidyl]-3-(4-phenoxyphenyl)imidazo[4,5-c]pyridin-2-one] |
|  | 65% |  |  |  |  |  | C=CC(=O)N1C[C@@H](O)C[C@@H](n2c(=O)n(-c3ccc(Oc4ccccc4)cc3)c3c(N)nccc32)C1 [Formula Ia, 4-amino-1-[(3R,5S)-5-hydroxy-1-prop-2-enoyl-3-piperidyl]-3-(4-phenoxyphenyl)imidazo[4,5-c]pyridin-2-one] |

Reference: US20240051955A1, “4-AMINO-3-(4-PHENOXYPHENYL)-1,3-DIHYDRO-2H-IMIDAZO[4,5-C]PYRIDIN-2-ONE DERIVATIVES AND SALTS THEREOF” (Genzyme Corporation, priority 2020, published 2024)
